From patent US8497267B2, “Method for treating a sleep disorder with a dosage form of besylate salts of zopiclone or eszopiclone” (Sunovion Pharmaceuticals Inc., priority 2007, dated 2013)

Columns and labels:
[1] = Aqueous solubility (24 hour equilibrated suspension in water, HPLC); type: physicochemical; conditions: for pH measured at saturation: saturated aqueous solution
Experimental: The aliquot was diluted and analyzed by HPLC (Waters). The data was compared to a standard curve generated from a set of solutions of known concentrations. The standard curve and the samples were analyzed using a HPLC using the following conditions: • Column: Symmetry C-18, 5 um, 15 cm×3.9 mm (Waters) • Mobile Phase: 0.05 M KH2PO4—0.01M Hexanesulfonic Acid/THF (1000:125) (Apparent pH 5.0) • Column Temp: 20-30° C. • Flow Rate: 1.0 mL/min • Wavelength: 305 nm • Run Time: 15 min (zopiclone retention time is 9.5-10 min)

[2] = Intrinsic dissolution, USP 28 method <1087>; type: physicochemical; conditions: isotonic 50 mM acetate (pH 4.5) buffer at 37° C., 50 rpm; for Intrinsic dissolution Average: average of Run 1 and Run 2
Experimental: The intrinsic dissolution (Table 3) was determined using USP 28 method <1087> (United States Pharmacopeia, The National Formulary, USP 28, 28th edition, Rockville, […]., 2005). Preparation of each test sample was performed as per USP 28 method <1087> by weighing and transferring the material to the die cavity and compressing for 1 minute at the minimum compression pressure necessary to form a nondisintegrating compacted pellet. The dissolution media used was isotonic 50 mM acetate buffer (pH 4.5) at 37° C. and speed was set at 50 rpm. Each run was halted at 5 min, irrespective of the percent dissolved. Each salt was run in duplicate.

[3] = water, equilibrated 24 hour at ambient

Row | SMILES | pH measured at saturation [1] | solubility thermodynamic at 24 h [1, 3] | Intrinsic dissolution Run 1 [2] | Intrinsic dissolution Run 2 [2] | Intrinsic dissolution Average [2] | Solubility [1, 3]
1 | CN1CCN(C(=O)O[C@H]2c3nccnc3C(=O)N2c2ccc(Cl)cn2)CC1.O=S(=O)(O)c1ccccc1 [Besylate, (S)-Zopiclone Besylate] | 4.4 | 34 mg/mL | 3.3 mgA/cm^2/min | 2.6 mgA/cm^2/min | 2.9 mgA/cm^2/min | –
2 | CN1CCN(C(=O)O[C@H]2c3nccnc3C(=O)N2c2ccc(Cl)cn2)CC1 [Free base, (S)-(6-(5-chloro-2-pyridyl)-5-[(4-methyl-1-piperazinyl)carbonyloxy]-7-oxo-6,7-dihydro-5H-pyrrolo[3,4-b]pyrazine)] | 7.6 | – | 0.6 mgA/cm^2/min | 0.5 mgA/cm^2/min | 0.5 mgA/cm^2/min | 0.2^1 mgA/mL
